Test: Inhibition of Ha-ras polymerase-chain reaction product

- IC50: > 300 µM
Compound: COC(=O)CCOc1cc2c(cc1OC)C(=O)N1CCC[C@H]1C=N2 [3-((S)-7-Methoxy-5-oxo-2,3,5,11a-tetrahydro-1H-benzo[e]pyrrolo[1,2-a][1,4]diazepin-8-yloxy)-propionic acid methyl ester]
